From patent publication US9988644B2, “Compounds for improved viral transduction” (bluebird bio, Inc., priority 2011, dated 2018) come the findings set out here.

Structures are written as SMILES.

The test system of assay [1] is CD34+ cells. Description: 7-Day liquid culture, FACS for GFP after transduction with GFP+ lentivirus in presence of dmPGE2. The assay is classed as cell-based, human. The settings on record: for % Positive (GFP): ~1 week in culture. As to the method:
One vial of CD34+ cells (AllCells) were thawed by incubating at 37° C. for 1-2 minutes and contents were transferred to 10 mL Stem Cell Growth Media (hereafter referred to as SCGM) in a 15-mL conical tube. Cells were spun for 5 minutes at 1500 RPM in a standard tabletop centrifuge, resuspended in 10 mL SCGM and counted on a hemacytometer. A volume correlating with an appropriate number of cells was transferred to a fresh 15-mL conical tube, and again spun for 5 minutes at 1500 RPM. Cells were resuspended to the desired cell concentration in SCGM+1× cytokines (100 ng/mL SCF, 100 ng/mL TPO, 100 ng/mL FltL, and 30 ng/mL IL-3), and plated on a sterile non-adherent surface at 37° C. in a standard humidified tissue culture incubator (5% CO2).
(§1) Pre-stimulated cells (Example 1) were counted after 18-24 hours of culture. The cells were collected and spun for 5 minutes at 1500 RPM. 1.2×10^6 pre-stimulated CD34^+ cells were resuspended in 60 uL 10× cytokines (1000 ng/mL SCF, 1000 ng/mL TPO, 1000 ng/mL FltL, and 300 ng/mL IL-3), 7.8 uL protamine sulfate, 111 uL viral supernatant, and 361.2 uL SCGM. 90 uL cell/virus suspension (about 200,000 cells) was added to each well of a standard non-adherent 96-well plate. dmPGE2 was added during this viral transduction step at a final concentration of 100 uM, 50 uM, 25 uM, 12.5 uM, 1 uM, or 0 uM.
Aliquots of 10 mM dmPGE2 in DMSO were prepared from 1 mg previously processed dmPGE2 (Cayman Chemicals). Briefly, air was pipetted into the vial of dmPGE2 until methyl acetate was evaporated. 263 uL DMSO was added to the PGE2 remaining in the vial, and aliquots of 25 uL were added to 1.5 mL Eppendorf tubes and stored at −80° C. 10× working stock solutions were prepared by serial dilution of dmPGE2 in SCGM, and were then added to cells at appropriate working concentrations, according to Table 2. Cells were then incubated at 37° C. in a standard humidified tissue culture incubator (5% CO2).
After 24 hours of culture with virus and dmPGE2, cells were washed prior to subsequent functional validation assays. Washing was performed by transferring cells to a 96-well U-bottom plate and spinning for 5 minutes at 1500 RPM in a standard tabletop centrifuge. Media was aspirated and cells were resuspended in 200 uL SCGM. Cells were spun again for 5 minutes at 1500 RPM and media was aspirated. Cells were again resuspended in 200 uL SCGM then spun for 5 minutes at 1500 RPM, and again the media was aspirated. Particular functional validation assays are described below.
(§2) Washed cells were resuspended in 200 uL SCGM+1× cytokines (as described in Example 1) and transferred to a standard 12-well non-adherent tissue culture plate containing an additional 800 uL SCGM+1× cytokines Cells were maintained for an additional 6 days in a standard humidified tissue culture incubator (5% CO2) and then subjected Vector Copy Number analysis (Example 5) and FACS analysis. For FACS analysis, cells were assayed for the presence of a virally-encoded transgene, green fluorescent protein (GFP). The frequency of the virally-labeled cells within the pool of cultured cells was quantified as the frequency of GFP+ cells within the population. The mean fluorescence intensity of labeled cells was quantified.
Tables 3A-C indicate the dose-response of dmPGE2 in promoting viral transduction of CD34+ cells for three separate experiments. CD34+ cells were thawed and pre-stimulated with SCF, TPO, FltL, and IL3, then transduced (A) with GFP+ lentivirus at a multiplicity of infection of 25, (B) with GFP+ lentivirus at a multiplicity of infection of 5, or (C) transduced with an ALD (ABCD1)-expressing lentivirus at a multiplicity of infection of 25. Cells were exposed to dmPGE2 during the viral transduction step (24-48 hours of culture). Cells were then washed and analyzed by flow cytometry and PCR after approximately 1 week in culture. […]

Assay [2] deals with CD34+ cells. Description: Vector Copy Number analysis (qRT-PCR, viral LTR vs human beta-actin) after GFP+ lentivirus transduction. The assay is classed as cell-based. The method, then:
as §1, §2
Briefly, total genomic DNA was isolated from cells through standard protocols (for example, through DNEasy columns from Qiagen). Genomic DNA was subjected to quantitative real-time polymerase chain reaction (qRT-PCR) with TaqMan probes for viral LTR and human beta-actin. The Ct values for viral signal and beta-actin signal were normalized to a standardized control, and the number of viral copies per copy of beta actin were calculated. A linear relationship between the vector copy number and the mean fluorescence intensity (Example 4) was observed when a viral construct that encodes GFP was used.
Tables 3A-C indicate the dose-response of dmPGE2 in promoting viral transduction of CD34+ cells for three separate experiments. CD34+ cells were thawed and pre-stimulated with SCF, TPO, FltL, and IL3, then transduced (A) with GFP+ lentivirus at a multiplicity of infection of 25, (B) with GFP+ lentivirus at a multiplicity of infection of 5, or (C) transduced with an ALD (ABCD1)-expressing lentivirus at a multiplicity of infection of 25. Cells were exposed to dmPGE2 during the viral transduction step (24-48 hours of culture). Cells were then washed and analyzed by flow cytometry and PCR after approximately 1 week in culture. The percentage of cells positive for GFP (A, B) or ALD (C) via FACS staining is indicated, along with the mean fluorescent intensity (MFI) and vector copy number (VCN) (A, B).

The mark [3] stands for this setting: dmPGE2 12.5 uM during transduction, GFP MOI 5.
The mark [4] stands for this setting: dmPGE2 12.5 uM during transduction, GFP MOI 25.
[5] abbreviates: dmPGE2 25 uM during transduction, GFP MOI 5.
The mark [6] stands for this setting: dmPGE2 50 uM during transduction, GFP MOI 5.
[7] abbreviates: dmPGE2 50 uM during transduction, GFP MOI 25.
[8] abbreviates: dmPGE2 100 uM during transduction, GFP MOI 5.
The mark [9] stands for this setting: dmPGE2 100 uM during transduction, GFP MOI 25.

On to `CCCCC(C)(C)[C@H](O)/C=C/[C@H]1[C@H](O)CC(=O)[C@@H]1C/C=C\CCCC(=O)O` [dmPGE2, 16,16-dimethyl PGE2], for which the “% Positive (GFP)” value in assay [1] (dmPGE2 12.5 uM during transduction (24-48 hours of culture), GFP MOI 5) was found to be 17.84%; in assay [1] (dmPGE2 12.5 uM during transduction (24-48 hours of culture), GFP MOI 25), 54.71%; in assay [1] (dmPGE2 25 uM during transduction (24-48 hours of culture), GFP MOI 5), 18.69%; in assay [1] (dmPGE2 25 uM during transduction (24-48 hours of culture), GFP MOI 25), 59.99%; in assay [1] (dmPGE2 50 uM during transduction (24-48 hours of culture), GFP MOI 5), 36.80%; in assay [1] (dmPGE2 50 uM during transduction (24-48 hours of culture), GFP MOI 25) it was 67.62%. The “% Positive (GFP)” value in assay [1] (dmPGE2 100 uM during transduction (24-48 hours of culture), GFP MOI 5) came to 42.97%; in assay [1] (dmPGE2 100 uM during transduction (24-48 hours of culture), GFP MOI 25) it was 81.53%. In addition, the “MFI (mean fluorescent intensity)” value is given as 530,218.50 in assay [1] (setting [3]); 759,442.75 in assay [1] (setting [4]); 562,428.00 in assay [1] (setting [5]); 656,703.50 in assay [1] (setting [6]); 977,806.75 in assay [1] (setting [7]); 732,716.25 in assay [1] (setting [8]). Besides, the “MFI (mean fluorescent intensity)” value in assay [1] (setting [9]) is reported as 1,513,504.00. In addition, the “VCN (vector copy number)” value is reported as 0.18 in assay [2] (setting [3]); 1.5 in assay [2] (setting [4]); 0.21 in assay [2] (setting [5]); 1.7 in assay [2] (dmPGE2 25 uM during transduction, GFP MOI 25); 0.715 in assay [2] (setting [6]); 2.2 in assay [2] (setting [7]). Further, the “VCN (vector copy number)” value in assay [2] (setting [8]) is on record as 0.83; in assay [2] (setting [9]), 3.55.
